Paper PMC11798738, “Targeting ASK1 by CS17919 alleviates kidney‐ and liver‐related diseases in murine models” (Animal Models and Experimental Medicine, 2024)

How the values were obtained:
[1] = tested on: HUH7; assay: MTS cytotoxicity assay, HUH7; assay type: cell-based, human; conditions: 72 h
Experimental: Human embryonic kidney cells (HEK‐293A), human hepatocellular carcinoma cells (HUH7), human embryonic liver diploid cells (CCC‐HEL‐1) and human embryonic lung cells (MRC‐5) were selected for the cytotoxicity study of both drugs, using the MTS assay protocol. Cells were cultured at 37°C with 5% CO2 using an appropriate medium. […] After 72 h of incubation, 30 μL of MTS solution was added to each well, and the cells were then incubated for 2–4 h in the dark. The absorbance value of each well at 490 nm was measured using an enzymatic plate reader and the IC50 for each drug and each cell line was calculated. Cell viability and cytoxicity experiments were repeated three times.

[2] = Tissue distribution in mice, oral; assay type: in vivo, C57BL/6J mice; conditions: 20 mg/kg gavage
Experimental: Male C57BL/6J mice at 6–8 weeks (Beijing Huafukang Biotechnology Co., Ltd) were also selected for tissue distribution studies. Mice were gavage‐administered at 20 mg/kg and anesthetized at 1, 2, 4, and 8 h after administration for tissue collection, including whole blood, heart, liver, kidney, and brain. These organs were homogenized using a tissue homogenizer and analyzed together with the plasma according to the standard LC/MS procedure.

[3] = biological target: CYP 2B6 (Homo sapiens, UniProt P20813); assay: CYP inhibition in vitro; assay type: in vitro ADME
Sequence of CYP 2B6 (P20813 whole entry): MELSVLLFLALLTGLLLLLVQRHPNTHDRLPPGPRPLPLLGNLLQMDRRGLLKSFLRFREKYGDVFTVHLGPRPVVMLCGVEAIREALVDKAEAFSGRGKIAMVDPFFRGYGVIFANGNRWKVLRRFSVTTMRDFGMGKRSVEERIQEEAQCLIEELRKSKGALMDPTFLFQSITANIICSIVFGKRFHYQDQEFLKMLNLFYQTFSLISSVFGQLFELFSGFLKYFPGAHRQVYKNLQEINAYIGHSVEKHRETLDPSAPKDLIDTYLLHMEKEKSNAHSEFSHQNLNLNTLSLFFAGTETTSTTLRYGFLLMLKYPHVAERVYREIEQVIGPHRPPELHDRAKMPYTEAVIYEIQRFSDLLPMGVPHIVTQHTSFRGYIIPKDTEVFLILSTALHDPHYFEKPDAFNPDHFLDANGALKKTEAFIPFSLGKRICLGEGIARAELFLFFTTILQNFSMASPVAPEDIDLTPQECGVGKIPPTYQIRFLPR

[4] = biological target: CYP 2C9 (Homo sapiens, UniProt P11712); assay: CYP inhibition in vitro; assay type: in vitro ADME
Sequence of CYP 2C9 (P11712 whole entry): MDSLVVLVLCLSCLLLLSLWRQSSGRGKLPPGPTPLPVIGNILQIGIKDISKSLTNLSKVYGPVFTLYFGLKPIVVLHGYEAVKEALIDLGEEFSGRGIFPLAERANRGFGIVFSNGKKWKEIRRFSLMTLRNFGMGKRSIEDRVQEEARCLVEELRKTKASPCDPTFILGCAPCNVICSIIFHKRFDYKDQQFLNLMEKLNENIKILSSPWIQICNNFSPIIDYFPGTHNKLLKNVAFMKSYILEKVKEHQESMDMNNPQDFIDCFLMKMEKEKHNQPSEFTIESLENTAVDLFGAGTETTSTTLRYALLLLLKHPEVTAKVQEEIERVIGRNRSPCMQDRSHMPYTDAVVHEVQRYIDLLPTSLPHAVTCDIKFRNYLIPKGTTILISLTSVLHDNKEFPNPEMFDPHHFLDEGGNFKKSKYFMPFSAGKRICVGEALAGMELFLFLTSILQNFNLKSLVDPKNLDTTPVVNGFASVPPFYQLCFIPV

Cc1cc(F)c(C(=O)Nc2cccc(-c3nncn3[C@H](C)C(F)(F)F)n2)cc1NC(=O)C1CC1 [CS17919]
Cytotoxicity (cell viability) [1]: barely affected cell viability | Tissue accumulation [2]: tissue‐specific accumulation of CS17919 in the liver and kidney | Brain concentration ([2]; 1 h, mean ± SD, n = 3): 30.42 ± 6.82 ng/g | Heart concentration ([2]; 1 h, mean ± SD, n = 3): 1330.94 ± 384.66 ng/g | Kidney concentration ([2]; 1 h, mean ± SD, n = 3): 4353.18 ± 260.20 ng/g | Liver concentration ([2]; 1 h, mean ± SD, n = 3): 8933.89 ± 456.44 ng/g | Plasma concentration ([2]; 1 h, mean ± SD, n = 3): 3104.56 ± 474.21 ng/mL | Brain concentration ([2]; 2 h, mean ± SD, n = 3): 7.37 ± 1.98 ng/g | Heart concentration ([2]; 2 h, mean ± SD, n = 3): 918.02 ± 156.73 ng/g | Kidney concentration ([2]; 2 h, mean ± SD, n = 3): 2751.58 ± 252.41 ng/g | Liver concentration ([2]; 2 h, mean ± SD, n = 3): 5322.41 ± 114.54 ng/g | Plasma concentration ([2]; 2 h, mean ± SD, n = 3): 2737.71 ± 208.45 ng/mL | Brain concentration ([2]; 4 h, mean ± SD, n = 3): 8.28 ± 4.78 ng/g | Heart concentration ([2]; 4 h, mean ± SD, n = 3): 338.03 ± 97.76 ng/g | Kidney concentration ([2]; 4 h, mean ± SD, n = 3): 1173.69 ± 135.53 ng/g | Liver concentration ([2]; 4 h, mean ± SD, n = 3): 2371.88 ± 421.50 ng/g | Plasma concentration ([2]; 4 h, mean ± SD, n = 3): 1444.51 ± 155.53 ng/mL | Heart concentration ([2]; 8 h, mean ± SD, n = 3): 256.60 ± 117.57 ng/g | Kidney concentration ([2]; 8 h, mean ± SD, n = 3): 993.13 ± 136.67 ng/g | Liver concentration ([2]; 8 h, mean ± SD, n = 3): 1939.43 ± 337.32 ng/g | Plasma concentration ([2]; 8 h, mean ± SD, n = 3): 856.1 ± 332.34 ng/mL | Brain concentration ([2]; 8 h, LLOQ 1 ng/g): LLOQ (<1) ng/g | IC50 [3]: > 10 µM | IC50 [4]: > 10 µM
